Assays:
[1] = Systemic clearance in Beagle dog at 1 mg/kg, iv administered as single dose; type: ADME, organism-based, Canis lupus familiaris; set-up: dose 1 mg/kg, route intravenous; conditions: in vivo
[2] = Half life in Beagle dog at 3 mg/kg, po administered as single dose; type: ADME, organism-based, Canis lupus familiaris; set-up: dose 3 mg/kg, route oral; conditions: in vivo
[3] = Half life in rat at 2.5 mg/kg, iv administered as single dose; type: ADME, organism-based; set-up: dose 2.5 mg/kg, route intravenous; conditions: in vivo
CYP2D6 = assay: In vitro stability in presence of human CYP2D6 assessed as compound remaining at 1 uM after 1 hr; type: ADME; conditions: read-out: Stability
[4] = Half life in Beagle dog at 1 mg/kg, iv administered as single dose; type: ADME, organism-based, Canis lupus familiaris; set-up: dose 1 mg/kg, route intravenous; conditions: in vivo
[5] = Oral bioavailability in rat at 10 mg/kg administered as single dose; type: ADME, organism-based; conditions: in vivo
Canis familiaris = organism: Canis familiaris; assay: Plasma concentration in Beagle dog after 15 to 30 mins; type: ADME, organism-based, Canis lupus familiaris; conditions: in vivo
[6] = Cmax in Beagle dog at 3 mg/kg, po administered as single dose; type: ADME, organism-based, Canis lupus familiaris; set-up: dose 3 mg/kg, route oral; conditions: in vivo
[7] = Tmax in Beagle dog at 3 mg/kg, po administered as single dose; type: ADME, organism-based, Canis lupus familiaris; set-up: dose 3 mg/kg, route oral; conditions: in vivo
[8] = Half life in rat at 10 mg/kg, po administered as single dose; type: ADME, organism-based; set-up: dose 10 mg/kg, route oral; conditions: in vivo
[9] = AUC (0 to infinity) in Beagle dog at 1 mg/kg, iv administered as single dose; type: ADME, organism-based, Canis lupus familiaris; set-up: time infinity, dose 1 mg/kg, route intravenous; conditions: plasma
CYP3A4 = assay: In vitro stability in presence of human CYP3A4 assessed as compound remaining at 1 uM after 1 hr; type: ADME; conditions: read-out: Stability
[10] = AUC in rat brain raphe magnus at 30 mg/kg, po administered as single dose after 6 hrs; type: ADME, organism-based; set-up: dose 30 mg/kg, route oral; conditions: read-out: Drug uptake
[11] = Metabolic stability in human liver microsomes assessed as compound remaining after 30 mins; type: ADME, Microsome; conditions: read-out: Stability
[12] = Metabolic stability in Beagle dog liver microsomes assessed as compound remaining after 30 mins; type: ADME, Canis lupus familiaris, Microsome; conditions: read-out: Stability
[13] = Cmax in rat at 10 mg/kg, po administered as single dose; type: ADME, organism-based; set-up: dose 10 mg/kg, route oral; conditions: in vivo
[14] = Volume of distribution at steady state in Beagle dog at 1 mg/kg, iv administered as single dose; type: ADME, organism-based, Canis lupus familiaris; set-up: dose 1 mg/kg, route intravenous; conditions: in vivo, read-out: Vdss
[15] = Volume of distribution at steady state in rat at 2.5 mg/kg, iv administered as single dose; type: ADME, organism-based; set-up: dose 2.5 mg/kg, route intravenous; conditions: in vivo, read-out: Vdss
CYP2C19 = assay: In vitro stability in presence of human CYP2C19 assessed as compound remaining at 1 uM after 1 hr; type: ADME; conditions: read-out: Stability
Rattus norvegicus = assay: fAUC in rat plasma at 30 mg/kg, po administered as single dose after 6 hrs; type: ADME, organism-based; set-up: dose 30 mg/kg, route oral; conditions: in vivo
[16] = Metabolic stability in rat liver microsomes assessed as compound remaining after 30 mins; type: ADME, Microsome; conditions: read-out: Stability
[17] = AUC in rat plasma at 30 mg/kg, po administered as single dose after 6 hrs; type: ADME, organism-based; set-up: time < 6 hr, dose 30 mg/kg, route oral
[18] = Tmax in rat at 10 mg/kg, po administered as single dose; type: ADME, organism-based; set-up: dose 10 mg/kg, route oral; conditions: in vivo
[19] = Oral bioavailability in Beagle dog at 3 mg/kg administered as single dose; type: ADME, organism-based, Canis lupus familiaris; conditions: in vivo
[20] = AUC (0 to infinity) in rat at 10 mg/kg, po administered as single dose; type: ADME, organism-based; set-up: time infinity, dose 10 mg/kg, route oral; conditions: plasma
[21] = AUC (0 to infinity) in rat at 2.5 mg/kg, iv administered as single dose; type: ADME, organism-based; set-up: time infinity, dose 2.5 mg/kg, route intravenous; conditions: plasma
[22] = AUC (0 to infinity) in Beagle dog at 3 mg/kg, po administered as single dose; type: ADME, organism-based, Canis lupus familiaris; set-up: time infinity, dose 3 mg/kg, route oral; conditions: plasma
[23] = Systemic clearance in rat at 2.5 mg/kg, iv administered as single dose; type: ADME, organism-based; set-up: dose 2.5 mg/kg, route intravenous; conditions: in vivo

Which clearance [1] does the source give for `CCN(CC)C(=O)c1ccc(C2=CC3(CCNCC3)Oc3ccccc32)c(O)c1` [ADL-5747 FREE BASE] here?
The clearance was 6.33 mL/min/kg.

And the half-life [2]?
The half-life was 7.7 h.

And the half-life [3]?
Its half-life is 5.3 h.

And the remaining at 1 h, 1 µM (CYP2D6)?
Its remaining at 1 h, 1 µM is 63.2%.

And the half-life [4]?
Its half-life is 12.2 h.

What about the bioavailability [5] of the same molecule?
Its bioavailability is 37.6%.

What about the Cp (Canis familiaris) of the same molecule?
The Cp was 808 ng/mL.

What about the Cmax [6] of the same molecule?
The Cmax was 852 ng/mL.

And the Tmax [7]?
The Tmax was 0.4 h.

And the half-life [8]?
Its half-life is 4.9 h.

What about the AUC(0-inf) [9] of the same molecule?
Its AUC(0-inf) is 2640 ng·h/mL.

What about the remaining at 1 h, 1 µM (CYP3A4) of the same molecule?
The remaining at 1 h, 1 µM was 22.5%.

And the AUC at 6 h [10]?
The AUC at 6 h was 105 ng·h/mL.

What about the remaining at 0.5 h [11] of the same molecule?
Its remaining at 0.5 h is 94.5%.

What about the remaining at 0.5 h [12] of the same molecule?
The remaining at 0.5 h was 63.9%.

What about the Cmax [13] of the same molecule?
The Cmax was 246 ng/mL.

And the Vd [14]?
The Vd was 5.1 L/kg.

And the Vd [15]?
The Vd was 18.1 L/kg.

And the remaining at 1 h, 1 µM (CYP2C19)?
Its remaining at 1 h, 1 µM is 78.4%.

And the fAUC (Rattus norvegicus)?
Its fAUC is 990 ng·h/mL.

And the remaining at 0.5 h [16]?
The remaining at 0.5 h was 59.7%.

What about the AUC at 6 h [17] of the same molecule?
The AUC at 6 h was 4610 ng·h/mL.

And the Tmax [18]?
Its Tmax is 1.3 h.

What about the bioavailability [19] of the same molecule?
Its bioavailability is 54.5%.

What about the AUC(0-inf) [20] of the same molecule?
The AUC(0-inf) was 1150 ng·h/mL.

And the AUC(0-inf) [21]?
The AUC(0-inf) was 780 ng·h/mL.

What about the AUC(0-inf) [22] of the same molecule?
Its AUC(0-inf) is 4200 ng·h/mL.

What about the clearance [23] of the same molecule?
Its clearance is 55 mL/min/kg.

From ChEMBL document CHEMBL1153522, “Spirocyclic delta opioid receptor agonists for the treatment of pain: discovery of N,N-diethyl-3-hydroxy-4-(spiro[chromene-2,4'-piperidine]-4-yl) benzamide (ADL5747)” (J Med Chem, 2009)
